The text below walks through data of PMC8151276, “An Integrated Approach toward NanoBRET Tracers for Analysis of GPCR Ligand Engagement” (Molecules, 2021).

Molecules are shown by their SMILES.

Common to all, as to type: binding
The target in one experiment is T1, CXCR3 (Homo sapiens, UniProt P49682).
T1 construct: purchased Promega (in-house HiBiT-GPCR construct library, NanoBRET)
T1 sequence (P49682 1-368): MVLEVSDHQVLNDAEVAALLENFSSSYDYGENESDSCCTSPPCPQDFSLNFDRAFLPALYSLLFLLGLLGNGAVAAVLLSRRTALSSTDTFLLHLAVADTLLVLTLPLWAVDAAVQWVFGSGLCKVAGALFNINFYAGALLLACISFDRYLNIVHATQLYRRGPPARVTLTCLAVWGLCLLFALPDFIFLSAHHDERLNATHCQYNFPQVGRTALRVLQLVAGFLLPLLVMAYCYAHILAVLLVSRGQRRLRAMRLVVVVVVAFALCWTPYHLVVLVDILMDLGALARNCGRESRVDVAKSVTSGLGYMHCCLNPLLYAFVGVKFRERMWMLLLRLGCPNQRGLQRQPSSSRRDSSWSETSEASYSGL
Briefly: NanoBRET screen HiBiT-CXCR3 in HEK293. The method, then:
(§1) Each tracer candidate was screened across the entire library of HiBiT-GPCR constructs using NanoBRET as the detection modality. As depicted in Figure 4A, the specificity of interactions was evaluated through decrease in BRET due to competitive displacement of a bound tracer by excess parental compound. Each tracer was analyzed for binding to each HiBiT-GPCR fusion in the absence and in the presence of competing parental compound. Briefly, HEK293 cells were transfected with HiBiT-GPCR constructs diluted into promoterless DNA to reduce expression and maximize translocation to the cell surface. Each tracer candidate was then screened at concentrations of 1 μM and 0.1 μM across cells expressing these fusions. Cells were treated for 1.5 h with tracer either alone or in the presence of 20 μM competing parental compound (i.e., control). BRET was measured upon addition of purified LgBiT and subsequent complementation with HiBiT genetically fused to a GPCR. The specificity of interactions was assessed through a decrease in BRET signal due to competitive displacement of the bound tracer. To further gauge the robustness of these interactions, the fold response over the control (i.e., BRETtracer/BRETcontrol) was calculated. We chose a 1.5-fold response, which translates to ≥7-fold signal over noise as the minimal threshold required to score an interaction as positive. […]. Below we highlight the screening results obtained for our exemplary fluorescent tracers based on Clozapine, Amitriptyline and AZD1283.
(§2) HiBiT-GPCR DNA constructs were diluted in 10 mM Tris pH 8 to a final concentration of 0.01 μg/μL, arrayed in 96-well plates and stored at −20 °C. For transfection, HEK293 cells were suspended in Opti-MEM (without phenol red) supplemented with 2% fetal bovine serum (Seradigm) and 100 units/mL penicillin–streptomycin (Gibco) at a final concentration of 220,000 cells/mL and dispensed into white 96-well plates at 90 μL/well. Subsequent transfections and screens were carried using an Agilent Bravo Automated Liquid Handling Platform. First, the 96-well HiBiT DNA arrays were diluted 25-fold in Opti-MEM (without serum or phenol red) to a final concentration of 0.0004 μg/μL and 20 μL of the diluted DNAs were transferred into new 96-well plates. Next, promoterless carrier DNA (1 μg/μL) was diluted 25-fold (0.04 μg/μL) and then dispensed into the diluted arrays at 20 μL/well. Following brief mixing, Viafect transfection reagent (Promega) diluted 16-fold into Opti-MEM was dispensed into the plates at 40 μL/well. After mixing by pipetting, plates were incubated for 10 min on the pipetting station deck. The DNA-transfection reagent complexes were then added to plates containing cells. To facilitate the screen, 10 μL of DNA-transfection reagent complexes were added in duplicates to the top 4 and bottom 4 rows, resulting in two identical 48-well arrays per plate. Plates with transfected cells were incubated for 18–20 h at 37 °C/5% CO2. A screen of each tracer across the entire library using two different concentrations requires duplicate plates of transfected cells. Depending on the number of tracers being screened, transfections can be scaled up using the same ratios. The next day, for each tracer, four 20× screening solutions in tracer dilution buffer (Promega) were prepared: two duplicates at final concentration of 20 μM and two duplicates at a final concentration of 2 μM. A competing unmodified compound was added to one of each duplicate at a final concentration of 400 μM. The four resulting solutions were diluted 4-fold in Opti-MEM without serum or phenol red to generate 5× solutions (5 µM and 0.5 µM tracer +/− 100 μM competing compound). To screen the library, a BioTek MultiFlo FX liquid dispenser was used to dispense 22.5 µL of tracer solution to the top 4 rows and 22.5 µL tracer + competing compound solution to the 4 bottom rows. Plates were briefly mixed on an orbital shaker and incubated for 1.5 h at room temperature. […]

The target of the next experiment is T2, HTR1D (Homo sapiens, UniProt P28221).
T2 construct: purchased Promega (in-house HiBiT-GPCR construct library, NanoBRET)
The experiment in a line: NanoBRET screen HiBiT-HTR1D in HEK293. The method, then:
as §1, §2
Background: In BRET a luciferase serves as donor, and the signal depends on an acceptor being close.

The target of the next experiment is T3, OPRK1 (Homo sapiens, UniProt P41145).
T3 construct: purchased Promega (in-house HiBiT-GPCR construct library, NanoBRET)
The experiment in a line: NanoBRET screen HiBiT-OPRK1 in HEK293. The method, then: as §1, §2

The next experiment addresses T4, VIPR1 (Homo sapiens, UniProt P32241).
T4 construct: purchased Promega (in-house HiBiT-GPCR construct library, NanoBRET)
T4 sequence (P32241 31-457): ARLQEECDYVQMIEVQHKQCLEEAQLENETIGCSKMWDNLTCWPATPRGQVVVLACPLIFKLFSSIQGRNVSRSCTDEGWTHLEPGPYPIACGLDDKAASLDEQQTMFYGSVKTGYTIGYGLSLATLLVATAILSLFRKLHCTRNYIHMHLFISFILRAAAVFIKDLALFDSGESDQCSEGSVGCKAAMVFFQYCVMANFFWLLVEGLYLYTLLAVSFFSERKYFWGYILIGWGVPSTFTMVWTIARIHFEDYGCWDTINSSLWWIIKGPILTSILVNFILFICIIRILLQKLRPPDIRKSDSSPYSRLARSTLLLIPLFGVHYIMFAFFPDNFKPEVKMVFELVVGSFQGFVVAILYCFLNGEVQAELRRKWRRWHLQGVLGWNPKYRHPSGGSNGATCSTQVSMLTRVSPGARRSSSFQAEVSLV
Briefly: NanoBRET screen HiBiT-VIPR1 in HEK293. Here is the method:
as §1, §2

The next experiment addresses T5, BDKRB2 (Homo sapiens, UniProt P30411).
T5 construct: purchased Promega (in-house HiBiT-GPCR construct library, NanoBRET)
T5 sequence (P30411 1-391): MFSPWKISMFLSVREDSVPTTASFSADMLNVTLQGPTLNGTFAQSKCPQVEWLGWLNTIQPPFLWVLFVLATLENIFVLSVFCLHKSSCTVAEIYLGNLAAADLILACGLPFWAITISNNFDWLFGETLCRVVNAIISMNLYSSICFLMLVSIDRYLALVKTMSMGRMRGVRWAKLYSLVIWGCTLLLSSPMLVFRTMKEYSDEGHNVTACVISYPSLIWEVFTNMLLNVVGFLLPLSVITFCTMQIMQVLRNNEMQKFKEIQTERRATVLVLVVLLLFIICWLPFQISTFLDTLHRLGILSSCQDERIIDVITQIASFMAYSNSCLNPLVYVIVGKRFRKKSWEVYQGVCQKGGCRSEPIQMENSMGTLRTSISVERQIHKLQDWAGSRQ
Briefly: NanoBRET screen HiBiT-BDKRB2 in HEK293. Here is the method:
as §1, §2

T3 sequence (P41145 whole entry): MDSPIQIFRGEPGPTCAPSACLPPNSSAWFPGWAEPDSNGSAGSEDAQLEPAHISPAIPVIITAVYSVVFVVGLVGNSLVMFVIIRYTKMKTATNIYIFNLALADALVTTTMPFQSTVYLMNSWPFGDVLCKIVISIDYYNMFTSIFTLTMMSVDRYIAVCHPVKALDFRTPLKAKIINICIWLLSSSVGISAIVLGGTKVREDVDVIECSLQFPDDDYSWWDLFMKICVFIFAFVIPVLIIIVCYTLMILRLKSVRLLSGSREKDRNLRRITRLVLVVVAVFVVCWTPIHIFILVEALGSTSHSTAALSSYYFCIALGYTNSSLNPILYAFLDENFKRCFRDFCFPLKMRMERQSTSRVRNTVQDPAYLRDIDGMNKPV
T2 sequence (P28221 whole entry): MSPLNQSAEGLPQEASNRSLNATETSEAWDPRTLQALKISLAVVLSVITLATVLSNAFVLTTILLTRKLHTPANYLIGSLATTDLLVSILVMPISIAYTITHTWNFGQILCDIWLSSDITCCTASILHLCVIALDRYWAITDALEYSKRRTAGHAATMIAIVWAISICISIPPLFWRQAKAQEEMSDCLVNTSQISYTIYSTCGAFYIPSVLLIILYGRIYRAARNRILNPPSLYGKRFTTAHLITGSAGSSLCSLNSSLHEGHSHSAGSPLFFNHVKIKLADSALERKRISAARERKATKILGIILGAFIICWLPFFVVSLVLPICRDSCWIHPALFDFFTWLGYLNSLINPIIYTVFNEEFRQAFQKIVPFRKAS

Regarding `O=C(CCc1ccc2n1[B-](F)(F)[N+]1=C(c3ccc[nH]3)C=CC1=C2)NCc1ccc(C(=O)NCCOCCC(=O)N[C@@H]2CC[C@@]3(O)[C@H]4Cc5ccc(O)c6c5[C@@]3(CCN4CC3CC3)[C@H]2O6)cc1` [Naltrexone-3-NB590], the “NanoBRET Fold Response” value came to 1.39 at CXCR3 (CXCR3, tracer 0.1μM); 0.78 on CXCR3 (CXCR3, tracer 1μM); 0.53 on HTR1D (HTR1D, tracer 0.1μM); 0.94 on HTR1D (HTR1D, tracer 1μM); 2.19 on OPRK1 (OPRK1, tracer 0.1μM); 1.53 on OPRK1 (OPRK1, tracer 1μM). Besides, the “NanoBRET Fold Response” value on VIPR1 (VIPR1, tracer 0.1μM) is recorded as 0.95; at VIPR1 (VIPR1, tracer 1μM) it was 1.36; at BDKRB2 (BDKRB2, tracer 0.1μM) it was 1.07; on BDKRB2 (BDKRB2, tracer 1μM) it was 0.94.
Consider `CCOC(=O)c1cc(C#N)c(N2CCC(C(=O)NS(=O)(=O)Cc3ccccc3/C=C/C(=O)NCCNC(=O)CCc3ccc4n3[B-](F)(F)[N+]3=C(c5ccc[nH]5)C=CC3=C4)CC2)nc1C` [AZD1283-1-NB590], for which the “NanoBRET Fold Response” value at CXCR3 (CXCR3, 0.1μM) turned out to be 0.98; at CXCR3 (CXCR3, 1μM), 1.17; on HTR1D (HTR1D, 0.1μM), 0.90; at HTR1D (HTR1D, 1μM) it was 0.88; on OPRK1 (OPRK1, 0.1μM) it was 0.98; on OPRK1 (OPRK1, 1μM), 0.99. Besides, the “NanoBRET Fold Response” value at VIPR1 (VIPR1, 0.1μM) stood at 0.99; on VIPR1 (VIPR1, 1μM) it was 1.02; at BDKRB2 (BDKRB2, 0.1μM) it was 1.06; on BDKRB2 (BDKRB2, 1μM) it was 1.04.
As for `COc1ccc2[nH]c(-c3ccc(CNC(=O)CCOCCOCCOCCOCCNC(=O)CCc4ccc5n4[B-](F)(F)[N+]4=C(c6ccc[nH]6)C=CC4=C5)cc3)c(CCNC(C)=O)c2n1` [AzomelatoninICO9-2-NB590], the “NanoBRET Fold Response” value was 0.79 on CXCR3 (0.1μM tracer); 0.91 at CXCR3 (1μM tracer); 0.63 at HTR1D (0.1μM tracer); 1.14 on HTR1D (1μM tracer); 0.96 on OPRK1 (0.1μM tracer); 0.93 on OPRK1 (1μM tracer). Further, the “NanoBRET Fold Response” value on VIPR1 (0.1μM tracer) was found to be 0.89; on VIPR1 (1μM tracer), 0.81; on BDKRB2 (0.1μM tracer), 0.96; on BDKRB2 (1μM tracer) it was 0.93.
In the case of `CC(C)N(CC[C@H](c1ccccc1)c1cc(CCNC(=O)CCOCCOCCOCCOCCNC(=O)CCc2ccc3n2[B-](F)(F)[N+]2=C(c4ccc[nH]4)C=CC2=C3)ccc1O)C(C)C` [Tolterodine-2-NB590], the “NanoBRET Fold Response” value at CXCR3 (CXCR3, tracer 0.1μM) was found to be 1.87; at CXCR3 (CXCR3, tracer 1μM) it was 1.01; on HTR1D (HTR1D, tracer 0.1μM), 1.35; at HTR1D (HTR1D, tracer 1μM), 0.68; on OPRK1 (OPRK1, tracer 0.1μM), 1.12; at OPRK1 (OPRK1, tracer 1μM) it was 0.95. Further, the “NanoBRET Fold Response” value on VIPR1 (VIPR1, tracer 0.1μM) is given as 0.99; on VIPR1 (VIPR1, tracer 1μM) it was 0.78; on BDKRB2 (BDKRB2, tracer 0.1μM), 0.96; on BDKRB2 (BDKRB2, tracer 1μM), 0.95.
Take `CN1CCN(C2=Nc3cc(Cl)ccc3N(CC(=O)NCCOCCOCCOCCOCCNC(=O)CCc3ccc4n3[B-](F)(F)[N+]3=C(c5ccc[nH]5)C=CC3=C4)c3ccccc32)CC1` [Clozapine-c-2-NB590]: the “NanoBRET Fold Response” value at CXCR3 (CXCR3, 0.1μM tracer) came out at 1.01; on CXCR3 (CXCR3, 1μM tracer), 0.76; on HTR1D (HTR1D, 0.1μM tracer), 1.00; at HTR1D (HTR1D, 1μM tracer), 1.00; on OPRK1 (OPRK1, 0.1μM tracer) it was 1.01; at OPRK1 (OPRK1, 1μM tracer), 0.90. Moreover, the “NanoBRET Fold Response” value was 0.98 at VIPR1 (VIPR1, 0.1μM tracer); 1.00 at VIPR1 (VIPR1, 1μM tracer); 1.00 at BDKRB2 (BDKRB2, 0.1μM tracer); 1.03 at BDKRB2 (BDKRB2, 1μM tracer).
`N#CN=C(NCCCOc1cccc(CN2CCCCC2)c1)NCCNC(=O)CCOCCOCCOCCOCCNC(=O)CCc1ccc2n1[B-](F)(F)[N+]1=C(c3ccc[nH]3)C=CC1=C2` [Aminopotentidine-2-NB590]: the “NanoBRET Fold Response” value at CXCR3 (CXCR3, tracer 0.1μM) turned out to be 1.33; at CXCR3 (CXCR3, tracer 1μM), 1.05; at HTR1D (HTR1D, tracer 0.1μM) it was 1.40; at HTR1D (HTR1D, tracer 1μM), 1.21; on OPRK1 (OPRK1, tracer 0.1μM), 1.14; at OPRK1 (OPRK1, tracer 1μM) it was 1.07. Besides, the “NanoBRET Fold Response” value on VIPR1 (VIPR1, tracer 0.1μM) was 1.02; on VIPR1 (VIPR1, tracer 1μM), 1.00; on BDKRB2 (BDKRB2, tracer 0.1μM), 1.00; at BDKRB2 (BDKRB2, tracer 1μM), 1.01.
As to `COc1ccc2c(n1)c(CCNC(C)=O)cn2CCNC(=O)CCc1ccc2n1[B-](F)(F)[N+]1=C(c3ccc[nH]3)C=CC1=C2` [Azamelatonin-1-NB590], the “NanoBRET Fold Response” value on CXCR3 (0.1μM tracer) is 1.19; at CXCR3 (1μM tracer) it was 0.93; on HTR1D (0.1μM tracer), 0.68; on HTR1D (1μM tracer), 0.68; at OPRK1 (0.1μM tracer), 0.92; at OPRK1 (1μM tracer), 0.92. Further, the “NanoBRET Fold Response” value is 0.99 on VIPR1 (0.1μM tracer), 1.21 at VIPR1 (1μM tracer), 1.00 on BDKRB2 (0.1μM tracer) and 1.05 at BDKRB2 (1μM tracer).
